Among the data in US8633212B2, “Inhibitors of beta-secretase” (Vitae Pharmaceuticals, Inc., priority 2009, dated 2014) are IC50 values, retold here.

In assay [1] the target is H4 neuroglioma cell line stably expressing APP with the KM-NL Swedish mutation (H4-APPsw); soluble Amyloid Beta 1-40 (Aβ 1-40) (Homo sapiens (Human), UniProt P56817). The assay can be described thus: BACE cell assay: soluble Aβ 1-40 in culture media of H4-APPsw cells (AlphaLISA/ELISA). The class given is cell-based. The note with it: in vitro cell activity; H4-APPsw cells treated overnight, secreted Aβ 1-40 in culture media. As for the experimental part: H4 neuroglioma cell line that stably expresses Amyloid Precursor Protein (APP) containing the KM-NL Swedish mutation (H4-APPsw) was generated. For the assay, cells are treated overnight in the presence of inhibitor and the culture media are subjected to ELISA analysis of soluble Amyloid Beta 1-40 (Aβ 1-40).
Generation and Maintenance of H4-APPsw Cell Line
H4 neuroglioma cell line was cultured in DMEM with 10% FBS and 1% penicillin/streptomycin (Culture Medium) at 37° C., 5% CO2. […] 24 hrs after transfection, the cells were replaced into three new plates (150 mm) in fresh Culture Medium with 250 ug/mL Zeocin. […] The levels of APPsw expression were analyzed by immunoblotting and the production of Aβ 1-40 was detected by ELISA of culture supernatants. The selected clones are maintained in Culture Medium with 250 μg/mL Zeocin and routinely split in 3-4 days to maintain 20-80% confluence.
Final Assay Conditions (96-Well Plate)
Split H4-APPsw cells in Culture Medium and culture overnight such that cells will be ˜80% confluent next morning.
Create Compound Dilution Plate.
After determining the desired final concentration of compound to be tested, create a 500× dilution plate. Add DMSO, but not inhibitor, to each well of Column 1. […] Add compounds of interest at 500× desired final concentration to wells A3-A10. […] Dilute contents of Row A 1:3 in Row B, then continue through Rows C-H.
Add 4 μL 5 mM control compound to Media Plate wells A1-D1 for determination of full inhibition.
With a multichannel pipettor, mix each well of Media Plate several times to insure homogeneity. […] Next, place Medium Plate and Cell Plate in the incubator.
Trypsinize and count H4-APPsw cells. Dilute cells 6×10^5 cells/mL in Culture Medium and remove Cell Plate from incubator. Vortex cells to homogeneity, then using a multichannel repeating pipettor, add 100 μL cell suspension to Cell Plate, adding cells from Row H to Row A. Place Cell Plate in incubator.
Change media in Cell Plate.
After 5 h, check Cell Plate by microscope to insure cells are attached. In culture hood, remove media from Cell Plate using multichannel repeating pipettor. Add 100 μl Culture Medium to each well. Remove Media Plate from incubator and mix with pipettor as previous. Add 100 μl from each well of Media Plate to corresponding well in Cell Plate. Place Cell Plate in incubator overnight.
Perform ELISA to determine levels of secreted Aβ 1-40.
After 16 h incubation, spin Cell Plate for 8 min at 1200 rpm. The primary reading of Aβ 1-40 levels is done using PerkinElmer AlphaLISA technology. Follow the manufacturer's protocol for performing AlphaLISA in a white ½ area Optiwell plate using Row 12 for peptide standard (1:2 dilutions, starting at 15 ng/ml). Data are acquired using PerkinElmer Fusion-Alpha FP-HT, Alpha protocol (Count Time 0.6s, Count Time Ratio 30%:70%).
Export data from Fusion using Columnar Report format into a separate file for each plate. Upload data into Activity Base using RIA-DOSE-RESPONSE protocol (Version 1). Data from at least eight doses were fitted to a four parameter logistical model using XLfit software to determine potency.
For orientation: Alpha assays give light when donor and acceptor beads are brought close together.

Assay [2] addresses truncated human beta-secretase (residues 1-458, His6-tagged at the C-terminus) (Homo sapiens (Human), UniProt P56817). The assay can be described thus: BACE enzyme assay (fluorescence quench assay, Example 434A). The note with it: read-out: IC50. The class given is biochemical.
[3] abbreviates: footnote a: protocols described in Example 434A.

Broadly, the IC50 is the concentration at which inhibition is half-maximal.

Structures are written as SMILES. Like-named read-outs stand apart in the source and are kept apart here.

Sequence of truncated human beta-secretase (residues 1-458, His6-tagged at the C-terminus) (P56817 22-458): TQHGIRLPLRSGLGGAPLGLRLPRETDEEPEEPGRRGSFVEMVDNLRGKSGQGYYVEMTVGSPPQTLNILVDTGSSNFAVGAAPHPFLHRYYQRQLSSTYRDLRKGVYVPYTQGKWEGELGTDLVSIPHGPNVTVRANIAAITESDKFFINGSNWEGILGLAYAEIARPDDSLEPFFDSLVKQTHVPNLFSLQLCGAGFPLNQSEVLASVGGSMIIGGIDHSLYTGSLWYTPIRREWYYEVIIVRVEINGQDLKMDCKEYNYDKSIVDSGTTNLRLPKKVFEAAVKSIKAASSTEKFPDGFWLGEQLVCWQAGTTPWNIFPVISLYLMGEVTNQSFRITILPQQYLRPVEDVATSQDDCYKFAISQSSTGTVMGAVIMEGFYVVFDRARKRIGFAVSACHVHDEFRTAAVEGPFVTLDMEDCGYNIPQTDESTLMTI
Sequence of H4 neuroglioma cell line stably expressing APP with the KM-NL Swedish mutation (H4-APPsw); soluble Amyloid Beta 1-40 (Aβ 1-40) (P56817 46-501 limits assumed, change not shown): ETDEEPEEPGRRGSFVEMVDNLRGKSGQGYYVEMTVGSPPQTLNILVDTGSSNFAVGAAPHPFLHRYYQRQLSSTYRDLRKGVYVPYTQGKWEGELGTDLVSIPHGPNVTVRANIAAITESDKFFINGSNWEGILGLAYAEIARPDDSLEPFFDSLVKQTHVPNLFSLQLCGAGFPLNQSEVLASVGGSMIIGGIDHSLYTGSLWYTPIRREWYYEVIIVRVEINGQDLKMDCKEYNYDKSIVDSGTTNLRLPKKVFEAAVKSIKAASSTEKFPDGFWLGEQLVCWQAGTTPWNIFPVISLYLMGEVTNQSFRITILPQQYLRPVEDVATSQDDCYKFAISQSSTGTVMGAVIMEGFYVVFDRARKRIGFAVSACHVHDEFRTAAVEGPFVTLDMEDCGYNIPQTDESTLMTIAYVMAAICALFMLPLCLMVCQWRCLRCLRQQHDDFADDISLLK

In the case of `COC1CCC2(CC1)Cc1ccc(-c3cccc(C(F)(F)F)c3)cc1C21N=C(N)N(C)O1` (centres unmarked) [Compound 20], the IC50 in assay [1] was < 500 nM; in assay [2] (setting [3]), 18.7 nM.
On to `COC1CCC2(CC1)Cc1ccc(-c3cccc(C#N)c3)cc1C21N=C(N)N(C)O1` (centres unmarked) [Compound 25], for which the IC50 in assay [1] is < 100 nM; in assay [2] (setting [3]) it was 26.2 nM.
With `CCO[C@H]1CC[C@]2(CC1)Cc1ccc(-c3cccc(C#N)c3)cc1C21N=C(N)N(C)O1` (some centres unmarked) [Compound 28], the values for the IC50 in assay [1] and in assay [2] were < 500 nM and 41.7 nM, respectively.
Consider `CN1OC2(N=C1N)c1cc(Cl)ccc1CC21CCc2ccccc2CC1` (centres unmarked) [Compound 30], for which the IC50 in assay [1] was < 5000 nM; in assay [2] (setting [3]), 61.6 nM.
Take `CN1OC2(N=C1N)c1cc(Br)ccc1CC21CCc2ccccc2CC1` (centres unmarked) [Compound 31]: the values for the IC50 in assay [1] and in assay [2] were < 5000 nM and 64 nM, respectively.
As for `CN1OC2(N=C1N)c1cc(-c3cccc(C#N)c3)ccc1CC21CC=C(F)CC1` (centres unmarked) [Compound 34], the IC50 in assay [1] is < 1000 nM; in assay [2] (setting [3]), 93.3 nM.
On to `CN1OC2(N=C1N)c1cc(-c3cccc(C(F)(F)F)c3)ccc1CC21CCc2ccccc2CC1` (centres unmarked) [Compound 39], for which the IC50 in assay [1] is < 10000 nM; in assay [2] it was 158 nM.
On to `CN1OC2(N=C1N)c1cc(-c3cccc(C#N)c3)ccc1CC21Cc2ccccc2C1` (centres unmarked) [Compound 40], for which the IC50 in assay [1] is < 5000 nM; in assay [2] (setting [3]) it was 160 nM.
As for `CC1=C(C)CC2(CC1)Cc1ccc(-c3cccc(C#N)c3)cc1C21N=C(N)N(C)O1` (centres unmarked) [Compound 41], the IC50 is < 5000 nM in assay [1] and 161 nM in assay [2] (setting [3]).
`COC1CCC2(CC1)Cc1ccc(-c3cc(F)cc(Cl)c3)cc1C21CC(=O)N(C)C(N)=N1` (stereo not drawn) [Compound 42, 2″-amino-1′″-methyl-6-(3-chloro-5-fluorophenyl)-1″H-spiro[spiro[2,3-dihydro-indene-2,1′-(trans-4-methoxycyclohexane)]-1,4′-pyrimidin]-6″(5″H)-one]: the IC50 in assay [1] was < 100 nM; in assay [2], 173 nM.
Consider `CN1OC2(N=C1N)c1cc(-c3cccc(C#N)c3)ccc1CC21CCc2cc(F)ccc2C1` (centres unmarked) [Compound 43], for which the IC50 in assay [1] is < 5000 nM; in assay [2] it was 178 nM.
Consider `CN1OC2(N=C1N)c1cc(-c3cccc(C#N)c3)ccc1CC21CCC(F)(F)CC1` (centres unmarked) [Compound 44], for which the IC50 in assay [1] is < 5000 nM; in assay [2] (setting [3]), 189 nM.
As for `CN1OC2(N=C1N)c1cc(-c3cccc(C#N)c3)ccc1CC21CCCc2ccccc2C1` (centres unmarked) [Compound 46], the IC50 was < 10000 nM in assay [1] and 293 nM in assay [2] (setting [3]).
Consider `CN1OC2(N=C1N)c1cc(-c3cccc(C#N)c3)ccc1CC21C=CC(c2ccccc2)C1` (centres unmarked) [Compound 47], for which the IC50 in assay [1] was < 10000 nM; in assay [2] (setting [3]), 295 nM.
Regarding `CN1OC2(N=C1N)c1cc(-c3cccc(C#N)c3)ccc1CC21CCCC1` (centres unmarked) [Compound 50], the IC50 in assay [1] is < 1000 nM; in assay [2] (setting [3]) it was 443 nM.
With `CN1OC2(N=C1N)c1cc(-c3cccc(C#N)c3)ccc1CC21CCc2c(F)cccc2C1` (centres unmarked) [Compound 54], the IC50 is < 5000 nM in assay [1] and 618 nM in assay [2] (setting [3]).
For the compound `CO[C@H]1CC2(Cc3ccc(-c4cccc(C#N)c4)cc3C23N=C(N)N(C)O3)C[C@H]1OC` (some centres unmarked) [Compound 57], the IC50 is < 5000 nM in assay [1] and 936 nM in assay [2] (setting [3]).
As for `CO[C@H]1CC[C@]2(CC1)Cc1ccc(-c3cccc(C#N)c3)cc1C21CC(=O)N(C)C(N)=N1` (stereo partly drawn) [Compound 58, 3-(2″-amino-1′″-methyl-6″-oxo-5″,6″-dihydro-1″H-spiro[spiro[2,3-dihydro-indene-2,1′-(trans-4-methoxycyclohexane)]-1,4′-pyrimidine]-6-yl)benzonitrile], the IC50 in assay [1] is < 100 nM; in assay [2], 970 nM.
The matching figures for `COC1CCC2(CC1)Cc1ccc(-c3cccnc3)cc1C21CC(=O)N(C)C(N)=N1` (stereo not drawn) [Compound 59, 2″-amino-1′″-methyl-6-(pyridin-3-yl)-1″H-spiro[spiro[2,3-dihydro-indene-2,1′-(trans-4-methoxycyclohexane)]-1,4′-pyrimidin]-6″(5″H)-one]: < 500 nM and 1550 nM.
